This passage reports Ki results from BindingDB's records for doi:10.1007/BF02244985 (Mayo Clinic, 1994).

One test has as its target D(2) dopamine receptor (Homo sapiens, UniProt P14416).
For test [1], the target named is T1, Alpha-2A adrenergic receptor (Homo sapiens, UniProt P08913).
T1 sequence (P08913 whole entry): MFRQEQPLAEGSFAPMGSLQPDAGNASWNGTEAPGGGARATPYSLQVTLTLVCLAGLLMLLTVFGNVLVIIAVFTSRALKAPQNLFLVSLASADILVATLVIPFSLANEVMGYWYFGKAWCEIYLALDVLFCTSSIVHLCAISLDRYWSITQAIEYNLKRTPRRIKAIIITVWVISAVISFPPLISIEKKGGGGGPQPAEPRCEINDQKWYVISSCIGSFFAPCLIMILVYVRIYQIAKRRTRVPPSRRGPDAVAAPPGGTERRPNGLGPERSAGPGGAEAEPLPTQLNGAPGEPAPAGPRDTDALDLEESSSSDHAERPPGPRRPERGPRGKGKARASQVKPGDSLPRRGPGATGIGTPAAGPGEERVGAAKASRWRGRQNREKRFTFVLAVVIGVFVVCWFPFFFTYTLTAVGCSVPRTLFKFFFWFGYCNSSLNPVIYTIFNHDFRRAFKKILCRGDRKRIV

Test [2] concerns the target T2, 5-hydroxytryptamine receptor 1A (Homo sapiens, UniProt P08908).
T2 sequence (P08908 whole entry): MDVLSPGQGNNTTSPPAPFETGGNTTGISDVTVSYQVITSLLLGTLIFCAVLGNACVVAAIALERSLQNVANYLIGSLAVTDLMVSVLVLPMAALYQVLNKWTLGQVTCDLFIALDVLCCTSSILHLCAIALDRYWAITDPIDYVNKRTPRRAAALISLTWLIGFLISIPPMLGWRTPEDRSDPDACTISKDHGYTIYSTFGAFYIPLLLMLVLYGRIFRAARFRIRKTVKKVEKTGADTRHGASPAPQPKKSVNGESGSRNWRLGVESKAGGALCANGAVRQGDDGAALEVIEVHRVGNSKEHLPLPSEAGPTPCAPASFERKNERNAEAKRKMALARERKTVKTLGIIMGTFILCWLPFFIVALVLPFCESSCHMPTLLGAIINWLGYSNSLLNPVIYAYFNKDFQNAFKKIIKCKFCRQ

The target of test [3] is T3, Alpha-1A adrenergic receptor (Homo sapiens, UniProt P35348).
T3 sequence (P35348 whole entry): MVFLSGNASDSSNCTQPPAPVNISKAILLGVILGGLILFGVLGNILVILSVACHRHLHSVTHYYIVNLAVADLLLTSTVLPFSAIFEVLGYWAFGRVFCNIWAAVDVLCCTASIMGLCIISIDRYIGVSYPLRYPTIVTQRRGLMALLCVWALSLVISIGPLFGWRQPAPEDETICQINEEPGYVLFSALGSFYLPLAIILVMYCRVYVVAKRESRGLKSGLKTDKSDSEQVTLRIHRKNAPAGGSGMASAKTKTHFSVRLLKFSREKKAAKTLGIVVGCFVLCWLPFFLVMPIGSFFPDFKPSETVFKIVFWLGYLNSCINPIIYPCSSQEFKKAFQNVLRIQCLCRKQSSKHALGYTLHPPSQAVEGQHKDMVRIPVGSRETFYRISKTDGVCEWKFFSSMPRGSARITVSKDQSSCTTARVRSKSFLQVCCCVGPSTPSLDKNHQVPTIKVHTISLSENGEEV

Test [4] addresses T4, Muscarinic acetylcholine receptor M2 (Homo sapiens, UniProt P08172).
T4 sequence (P08172 whole entry): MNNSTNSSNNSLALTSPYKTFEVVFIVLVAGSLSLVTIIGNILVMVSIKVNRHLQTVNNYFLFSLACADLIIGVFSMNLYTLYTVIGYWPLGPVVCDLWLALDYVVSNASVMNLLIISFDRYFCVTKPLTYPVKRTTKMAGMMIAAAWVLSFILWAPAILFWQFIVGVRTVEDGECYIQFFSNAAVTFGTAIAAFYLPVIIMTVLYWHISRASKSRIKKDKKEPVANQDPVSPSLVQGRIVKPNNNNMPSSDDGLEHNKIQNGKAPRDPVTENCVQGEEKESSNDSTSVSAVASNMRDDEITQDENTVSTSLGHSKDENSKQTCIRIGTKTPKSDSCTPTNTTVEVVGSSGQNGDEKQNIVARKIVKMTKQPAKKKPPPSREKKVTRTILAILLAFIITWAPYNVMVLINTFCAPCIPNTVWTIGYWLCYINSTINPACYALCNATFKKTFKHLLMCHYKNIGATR

Structures can show the parent of a compound that is named as a salt.

Chain of D(2) dopamine receptor (P14416 whole entry): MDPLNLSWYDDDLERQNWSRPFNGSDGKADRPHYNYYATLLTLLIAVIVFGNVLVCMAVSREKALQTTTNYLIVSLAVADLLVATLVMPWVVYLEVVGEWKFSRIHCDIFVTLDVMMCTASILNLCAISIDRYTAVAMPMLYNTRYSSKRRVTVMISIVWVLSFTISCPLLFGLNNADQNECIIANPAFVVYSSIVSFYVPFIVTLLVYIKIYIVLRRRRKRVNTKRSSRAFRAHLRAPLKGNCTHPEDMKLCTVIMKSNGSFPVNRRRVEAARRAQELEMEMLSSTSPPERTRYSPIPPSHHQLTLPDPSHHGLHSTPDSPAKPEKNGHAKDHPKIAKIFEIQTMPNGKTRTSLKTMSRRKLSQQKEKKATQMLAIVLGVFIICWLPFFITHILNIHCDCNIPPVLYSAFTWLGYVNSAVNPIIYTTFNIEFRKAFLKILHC

One may read the Ki as the dissociation constant of the complex between target and ligand, obtained from inhibition or displacement. A higher Ki goes with lower affinity. On to `CN(C)CCCN1c2ccccc2CCc2ccccc21`, for which the Ki at D(2) dopamine receptor is 620 nM; in test [1], 3100 nM; in test [2], 5800 nM; in test [3], 32 nM; in test [4] it was 46 nM.

With `CN(C)CCC=C1c2ccccc2CCc2ccccc21`, the inhibition constant Ki on D(2) dopamine receptor came out at 1460 nM; in test [1] it was 690 nM; in test [2] it was 450 nM; in test [3], 24 nM.

Take `N[C@H]1CC[C@@H](c2ccc(Cl)c(Cl)c2)c2ccccc21`: the Ki at D(2) dopamine receptor is over 10000 nM; in test [1], 7800 nM; in test [2], over 10000 nM; in test [3], 1200 nM; in test [4], 1430 nM.

At D(2) dopamine receptor, `CN(C)CC/C=C1/c2ccccc2COc2ccccc21` returned a Ki of 360 nM.

Regarding `CCc1nn(CCCN2CCN(c3cccc(Cl)c3)CC2)c(=O)n1CCOc1ccccc1` [2-{3-[4-(3-chlorophenyl)piperazin-1-yl]propyl}-5-ethyl-4-(2-phenoxyethyl)-2,4-dihydro-3H-1,2,4-triazol-3-one], the inhibition constant Ki at D(2) dopamine receptor amounted to 910 nM; in test [2], 80 nM; in test [3], 48 nM.

For the compound `COc1ccc(OC[C@H]2CN(C)CC[C@@H]2c2ccccc2)cc1` [(3R,4S)-3-(4-Methoxy-phenoxymethyl)-1-methyl-4-phenyl-piperidine], the Ki on D(2) dopamine receptor came to 590 nM; in test [1], 1970 nM; in test [2] it was 2290 nM; in test [3], 650 nM; in test [4], 184 nM.

As for `CC(NC(C)(C)C)C(=O)c1cccc(Cl)c1` (stereo not given) [BUPROPION HYDROCHLORIDE], the Ki is over 10000 nM on D(2) dopamine receptor; over 10000 nM in test [1]; over 10000 nM in test [2]; 4200 nM in test [3]; over 10000 nM in test [4].

With `CN(CCCN1c2ccccc2CCc2ccccc21)CC(=O)c1ccc(Cl)cc1` [CAS_23047-25-8], the inhibition constant Ki at D(2) dopamine receptor is 2000 nM; in test [1], 2700 nM; in test [2], 4600 nM; in test [3], 100 nM; in test [4], 67 nM.

The compound `CNCCCN1c2ccccc2CCc2ccccc21` [Desmethylimipramine] had a Ki at D(2) dopamine receptor of 3500 nM. That is a single-digit micromolar value.

In test [3], `CNCCC(Oc1ccccc1C)c1ccccc1` (stereo not given) [Methyl-(3-phenyl-3-o-tolyloxy-propyl)-amine(tomoxetine)] registered an inhibition constant Ki of 3800 nM. This counts as single-digit micromolar.

`NCC[C@H](Oc1ccc(C(F)(F)F)cc1)c1ccccc1` [NORFLUOXETINE]: the Ki is over 10000 nM at D(2) dopamine receptor; over 10000 nM in test [1]; over 10000 nM in test [2]; 3900 nM in test [3]; 810 nM in test [4].

Consider `CNCCC=C1c2ccccc2CCc2ccccc21` [NORTRIPTYLINE], for which the inhibition constant (Ki) was determined as 2570 nM at D(2) dopamine receptor, 294 nM in test [2], 55 nM in test [3] and 37 nM in test [4].

With `CN(C)Cc1nnc2n1-c1ccc(Cl)cc1C(c1ccccc1)=NC2` [NSC_37632], the inhibition constant Ki (at D(2) dopamine receptor; in test [1]; in test [2]; in test [3]; in test [4]) was over 10000 nM throughout.

In the case of `CCc1nn(CCCN2CCN(c3cccc(Cl)c3)CC2)c(=O)n1CC` [NSC_40589], the Ki at D(2) dopamine receptor is 2300 nM; in test [1], 570 nM; in test [2], 85 nM; in test [3], 38 nM; in test [4] it was over 10000 nM.

Turning to `COc1ccc(C(CN(C)C)C2(O)CCCCC2)cc1` (stereo not given) [NSC_62923], the inhibition constant Ki (at D(2) dopamine receptor; in test [1]; in test [2]; in test [3]; in test [4]) was over 10000 nM in each case.

Take `Fc1ccc([C@@H]2CCNC[C@H]2COc2ccc3c(c2)OCO3)cc1` [PAROXETINE]: the inhibition constant (Ki) (at D(2) dopamine receptor; in test [2]) was over 10000 nM in each case.

`CN[C@@H]1CC[C@@H](c2ccc(Cl)c(Cl)c2)c2ccccc21` [[4-(3,4-Dichloro-phenyl)-1,2,3,4-tetrahydro-naphthalen-1-yl]-methyl-amine]: the inhibitory constant (Ki) on D(2) dopamine receptor was over 10000 nM; in test [2], over 10000 nM; in test [3], 380 nM; in test [4], 630 nM.
